Experiments:
ΔF508-CFTR [1] = biological target: T1, ΔF508-CFTR (Homo sapiens, UniProt P13569, DEL508-508); assay: CFTR cell surface levels using HRP-tagged ΔF508-CFTR expressing CFBE cells, intrinsic corrector capacity; format: cell-based; conditions: for EC50: read-out: EC50
T1 construct: host or cells: CFBE41o-, doxycycline-inducible
Method in brief: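 Here the cells express ΔF508-CFTR with horseradish peroxidase inserted in extracellular loop 4, so only rescued channel at the surface gives luminescent signal. Compounds act on their own, 20 h at the reduced temperature of 33 °C; values are percent activity relative to DMSO and a 3 μM corrector.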

ΔF508-CFTR [2] = biological target: T1, ΔF508-CFTR; assay: CFTR cell surface levels using HRP-tagged ΔF508-CFTR expressing CFBE cells, in the presence of a co-corrector; format: cell-based; conditions: HRP-tagged ΔF508-CFTR expressing CFBE cells, in the presence of 3 μM co-corrector; for EC50: read-out: EC50
Method in brief: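 Cells were seeded with 0.5 μg/mL doxycycline and held 68 h at 37 °C. Test compounds plus 3 μM co-corrector (final 0.1% DMSO) were then added for 20 h at 33 °C. Washed cells received HRP substrate, and luminescence was normalized between DMSO and 3 μM co-corrector controls.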

[3] = HRP-tagged ΔF508-CFTR CFBE41o- cells, compounds alone (intrinsic corrector capacity), 20 hours at 33° C., positive control 3 μM corrector
[4] = HRP-tagged ΔF508-CFTR CFBE41o- cells, compounds alone (intrinsic corrector capacity), 20 hours at 33° C.
[5] = HRP-tagged ΔF508-CFTR expressing CFBE cells, intrinsic corrector capacity (no co-corrector), 33° C., 20 hours

T1 sequence (P13569 with tags, fused parts or gaps DEL508-508): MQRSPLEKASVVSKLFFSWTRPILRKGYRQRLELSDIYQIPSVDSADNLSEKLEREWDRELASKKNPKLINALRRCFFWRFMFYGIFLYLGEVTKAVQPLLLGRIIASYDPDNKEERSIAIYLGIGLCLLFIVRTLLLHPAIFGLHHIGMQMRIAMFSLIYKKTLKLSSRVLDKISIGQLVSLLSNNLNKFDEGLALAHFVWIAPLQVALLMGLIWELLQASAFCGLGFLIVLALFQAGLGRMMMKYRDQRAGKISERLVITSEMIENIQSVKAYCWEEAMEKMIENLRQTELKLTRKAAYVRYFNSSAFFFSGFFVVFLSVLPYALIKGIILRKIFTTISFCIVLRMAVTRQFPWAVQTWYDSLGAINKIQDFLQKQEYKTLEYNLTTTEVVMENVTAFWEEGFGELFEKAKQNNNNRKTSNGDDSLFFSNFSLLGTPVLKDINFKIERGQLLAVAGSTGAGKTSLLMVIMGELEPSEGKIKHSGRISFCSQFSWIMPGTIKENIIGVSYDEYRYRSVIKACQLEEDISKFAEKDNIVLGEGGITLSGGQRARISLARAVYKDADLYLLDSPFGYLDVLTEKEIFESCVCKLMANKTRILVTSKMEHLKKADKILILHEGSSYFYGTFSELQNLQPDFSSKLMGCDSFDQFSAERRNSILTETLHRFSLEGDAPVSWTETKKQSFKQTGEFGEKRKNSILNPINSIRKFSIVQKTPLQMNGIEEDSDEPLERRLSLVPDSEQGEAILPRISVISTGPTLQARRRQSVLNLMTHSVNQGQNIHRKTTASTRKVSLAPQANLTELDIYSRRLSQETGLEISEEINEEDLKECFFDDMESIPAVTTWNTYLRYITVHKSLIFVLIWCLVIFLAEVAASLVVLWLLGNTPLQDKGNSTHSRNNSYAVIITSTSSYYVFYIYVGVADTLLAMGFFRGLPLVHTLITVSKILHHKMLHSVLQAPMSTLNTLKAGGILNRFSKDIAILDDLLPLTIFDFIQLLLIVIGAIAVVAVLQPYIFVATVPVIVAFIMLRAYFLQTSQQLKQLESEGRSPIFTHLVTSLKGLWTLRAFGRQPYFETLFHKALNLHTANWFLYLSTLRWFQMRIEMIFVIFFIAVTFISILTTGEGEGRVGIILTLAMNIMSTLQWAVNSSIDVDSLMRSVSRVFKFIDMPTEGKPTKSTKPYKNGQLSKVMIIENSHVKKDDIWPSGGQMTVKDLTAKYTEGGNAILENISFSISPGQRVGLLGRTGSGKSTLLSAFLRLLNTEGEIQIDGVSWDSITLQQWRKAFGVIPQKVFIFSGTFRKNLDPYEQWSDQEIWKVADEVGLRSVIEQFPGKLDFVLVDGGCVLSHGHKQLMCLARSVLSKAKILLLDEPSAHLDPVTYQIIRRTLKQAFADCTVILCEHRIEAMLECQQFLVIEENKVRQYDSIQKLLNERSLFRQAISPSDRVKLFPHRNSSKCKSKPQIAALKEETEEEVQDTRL

## CC(C)c1nn(-c2cccc(N3CC(O)C3)c2)c2nc(C(=O)O)cc(-c3ccc(N4CCOCC4)cc3)c12 [compound 225, 1-[3-(3-hydroxyazetidin-1-yl)phenyl]-4-[4-(morpholin-4-yl)phenyl]-3-(propan-2-yl)-1H-pyrazolo[3,4-b]pyridine-6-carboxylic acid]
ΔF508-CFTR [1]; [3]
  % Activation: 251.5%
ΔF508-CFTR [1]; [4]
  EC50: 1980 nM
ΔF508-CFTR [2]
  % Activation: 395.7%
  EC50: 901 nM

## Cc1nn(-c2ccccc2)c2nc(C(=O)O)cc(OC[C@H](F)C3CCOCC3)c12 [compound 336, 4-[(2R)-2-fluoro-2-(oxan-4-yl)ethoxy]-3-methyl-1-phenyl-1H-pyrazolo[3,4-b]pyridine-6-carboxylic acid]
ΔF508-CFTR [1]; [3]
  % Activation: 118.2%
ΔF508-CFTR [1]; [4]
  EC50: 1370 nM
ΔF508-CFTR [2]
  % Activation: 297.8%
  EC50: 1320 nM

## CC(C)c1nn(C2CCC(F)(F)CC2)c2nc(C(=O)O)cc(-c3ccc(N4CCOCC4)cc3)c12 [compound 159, 1-(4,4-difluorocyclohexyl)-4-[4-(morpholin-4-yl)phenyl]-3-(propan-2-yl)-1H-pyrazolo[3,4-b]pyridine-6-carboxylic acid]
ΔF508-CFTR [1]; [3]
  % Activation: 150.16%
ΔF508-CFTR [1]; [4]
  EC50: 737 nM
ΔF508-CFTR [2]
  % Activation: 415.33%
  EC50: 755 nM

## CC(C)N1CCC(Oc2cc(C(=O)O)nc3c2c(C2CCC2)nn3-c2ccccc2)CC1 [compound 647, 3-cyclobutyl-1-phenyl-4-{[1-(propan-2-yl)piperidin-4-yl]oxy}-1H-pyrazolo[3,4-b]pyridine-6-carboxylic acid]
ΔF508-CFTR [1]; [5]
  % Activation: 119.9%
  EC50: 2180 nM
ΔF508-CFTR [2]
  % Activation: 301.3%
  EC50: 2010 nM

## O=C(O)c1cc(N2CCC3(CCCO3)C2)c2c(C3CCC3)nn(-c3ccccc3)c2n1 (stereo not drawn) [compound 518, 3-cyclobutyl-4-(1-oxa-7-azaspiro[4.4]nonan-7-yl)-1-phenyl-1H-pyrazolo[3,4-b]pyridine-6-carboxylic acid]
ΔF508-CFTR [1]; [5]
  % Activation: 62.95%
  EC50: 371 nM
ΔF508-CFTR [2]
  % Activation: 237%
  EC50: 531 nM

## CC(C)Oc1nn(C2CCCCC2)c2nc(C(=O)O)cc(-c3ccc(CN4CCN(C5CC5)CC4)cc3)c12 [compound 884, 1-cyclohexyl-4-{4-[(4-cyclopropylpiperazin-1-yl)methyl]phenyl}-3-[(propan-2-yl)oxy]-1H-pyrazolo[3,4-b]pyridine-6-carboxylic acid]
ΔF508-CFTR [1]; [5]
  % Activation: 140.6%
  EC50: 298 nM
ΔF508-CFTR [2]
  % Activation: 377.6%
  EC50: 214 nM

## CC(C)c1nn(-c2ccc(F)cc2)c2nc(C(=O)O)cc(N3CC[C@@H](N4CCCCC4)C3)c12 [compound 786, 1-(4-fluorophenyl)-4-[(3R)-3-(piperidin-1-yl)pyrrolidin-1-yl]-3-(propan-2-yl)-1H-pyrazolo[3,4-b]pyridine-6-carboxylic acid]
ΔF508-CFTR [1]; [5]
  % Activation: 67.03%
  EC50: 1160 nM
ΔF508-CFTR [2]
  % Activation: 221.6%
  EC50: 907 nM

## CC(C)c1nn(C2CCN(CC#N)C2)c2nc(C(=O)O)cc(-c3ccc(N4CCOCC4)cc3)c12 (stereo not drawn) [compound 141, 1-[1-(cyanomethyl)pyrrolidin-3-yl]-4-[4-(morpholin-4-yl)phenyl]-3-(propan-2-yl)-1H-pyrazolo[3,4-b]pyridine-6-carboxylic acid]
ΔF508-CFTR [1]; [3]
  % Activation: 5.399%
ΔF508-CFTR [1]; [4]
  EC50: > 10000 nM
ΔF508-CFTR [2]
  % Activation: 121.5%
  EC50: > 10000 nM

## O=C(O)c1cc(-c2ccc(N3CCN(C4CC4)CC3)nc2)c2c(C3CCC3)nn(C3CCCCC3)c2n1 [compound 868, 3-Cyclobutyl-1-cyclohexyl-4-[6-(4-cyclopropylpiperazin-1-yl)-pyridin-3-yl]-1H-pyrazolo[3,4-b]pyridine-6-carboxylic acid]
ΔF508-CFTR [1]; [5]
  % Activation: 140.3%
  EC50: 239 nM
ΔF508-CFTR [2]
  % Activation: 337.8%
  EC50: 176 nM

## Cc1ncn(C)c(=O)c1CCN1CCN(c2cc(C(=O)O)nc3c2c(C2CCC2)nn3-c2ccccc2)CC1 [compound 502, 3-cyclobutyl-4-{4-[2-(1,4-dimethyl-6-oxo-1,6-dihydropyrimidin-5-yl)ethyl]piperazin-1-yl}-1-phenyl-1H-pyrazolo[3,4-b]pyridine-6-carboxylic acid]
ΔF508-CFTR [1]; [5]
  % Activation: 152%
  EC50: 3340 nM
ΔF508-CFTR [2]
  % Activation: 327%
  EC50: 1350 nM

## O=C(O)c1cc(N2CCC3C(CCN3C3COC3)C2)c2c(C3CCC3)nn(-c3ccc(F)cc3)c2n1 (stereo not drawn) [compound 902, 3-cyclobutyl-1-(4-fluorophenyl)-4-[1-(oxetan-3-yl)octahydro-5H-pyrrolo[3,2-c]pyridin-5-yl]-1H-pyrazolo[3,4-b]pyridine-6-carboxylic acid]
ΔF508-CFTR [1]; [5]
  % Activation: 193.9%
  EC50: 230 nM
ΔF508-CFTR [2]
  % Activation: 411.75%
  EC50: 114 nM

## O=C(O)c1cc(N2CC3(CCOC3)C2)c2c(C3CCC3)nn(-c3ccccc3)c2n1 [compound 534, 3-cyclobutyl-4-(6-oxa-2-azaspiro[3.4]octan-2-yl)-1-phenyl-1H-pyrazolo[3,4-b]pyridine-6-carboxylic acid]
ΔF508-CFTR [1]; [5]
  % Activation: 111%
  EC50: 3330 nM
ΔF508-CFTR [2]
  % Activation: 281.95%
  EC50: 893 nM

## COCCN(C)c1ncc(-c2cc(C(=O)O)nc3c2c(C(C)C)nn3C2CCCCC2)cn1 [compound 237, 1-cyclohexyl-4-{2-[(2-methoxyethyl)(methyl)amino]pyrimidin-5-yl}-3-(propan-2-yl)-1H-pyrazolo[3,4-b]pyridine-6-carboxylic acid]
ΔF508-CFTR [1]; [3]
  % Activation: 227%
ΔF508-CFTR [1]; [4]
  EC50: 510 nM
ΔF508-CFTR [2]
  % Activation: 372.97%
  EC50: 324 nM

## CS(=O)(=O)[C@@H]1CCN(c2cc(C(=O)O)nc3c2c(C2CCC2)nn3-c2ccccc2)C1 [compound 467, 3-cyclobutyl-4-[(3R)-3-(methanesulfonyl)pyrrolidin-1-yl]-1-phenyl-1H-pyrazolo[3,4-b]pyridine-6-carboxylic acid]
ΔF508-CFTR [1]; [5]
  % Activation: 97.95%
  EC50: 3340 nM
ΔF508-CFTR [2]
  % Activation: 274.35%
  EC50: 3340 nM

## O=C(O)c1cc(OCCCN2CCOCC2)c2c(C3CCC3)nn(-c3ccccc3)c2n1 [compound 487, 3-cyclobutyl-4-[3-(morpholin-4-yl)propoxy]-1-phenyl-1H-pyrazolo[3,4-b]pyridine-6-carboxylic acid]
ΔF508-CFTR [1]; [5]
  % Activation: 142.7%
  EC50: 835 nM
ΔF508-CFTR [2]
  % Activation: 316.5%
  EC50: 491 nM

## CC1(CO)CN(c2cc(C(=O)O)nc3c2c(C2CCC2)nn3-c2ccccc2)C1 [compound 511, 3-cyclobutyl-4-[3-(hydroxymethyl)-3-methylazetidin-1-yl]-1-phenyl-1H-pyrazolo[3,4-b]pyridine-6-carboxylic acid]
ΔF508-CFTR [1]; [5]
  % Activation: 56.48%
  EC50: 3340 nM
ΔF508-CFTR [2]
  % Activation: 214.6%
  EC50: 1030 nM

## CC(C)c1nn(C2CCCCC2)c2nc(C(=O)O)cc(-c3cnc(N(C)C4CCOCC4)nc3)c12 [compound 236, 1-cyclohexyl-4-{2-[methyl(oxan-4-yl)amino]pyrimidin-5-yl}-3-(propan-2-yl)-1H-pyrazolo[3,4-b]pyridine-6-carboxylic acid]
ΔF508-CFTR [1]; [3]
  % Activation: 213.68%
ΔF508-CFTR [1]; [4]
  EC50: 656 nM
ΔF508-CFTR [2]
  % Activation: 423.62%
  EC50: 638 nM

## O=C(O)c1cc(-c2ccc(N3CCOCC3)cc2)c2c(C3CCC3)nn(-c3cc(F)cc(F)c3)c2n1 [compound 353, 3-cyclobutyl-1-(3,5-difluorophenyl)-4-[4-(morpholin-4-yl)phenyl]-1H-pyrazolo[3,4-b]pyridine-6-carboxylic acid]
ΔF508-CFTR [1]; [3]
  % Activation: 224.1%
ΔF508-CFTR [1]; [4]
  EC50: 506 nM
ΔF508-CFTR [2]
  % Activation: 438.65%
  EC50: 459 nM
